One compound from ChEMBL document CHEMBL5143625, “Isolation, synthesis and bioactivity evaluation of isoquinoline alkaloids from Corydalis hendersonii Hemsl. against gastric cancer in vitro and in vivo” (Bioorg Med Chem, 2022) can be followed below.

The test system of one data set is GES1. Briefly: Antiproliferative activity against human GES1 cells assessed as reduction in cell viability after 24 hrs by MTT assay. It counts as functional, cell-based. Particulars: GES1, 24 h.
Data set [1] is described as follows: Half life in Sprague-Dawley rat at 50 mg/kg, ip measured upto 24 hrs by LC-MS analysis. As to conditions: in vivo. In kind it is ADME, organism-based.
In data set [2] the test system is MGC-803. Briefly: Antitumor activity against human MGC-803 cells xenografted in immunodeficient nude mouse assessed as increase in survival at 50 mg/kg, ip administered for 3 weeks. In kind it is functional, organism-based. A general note: In xenograft studies the graft and the host belong to different species.
Data set [3] is described as follows: Toxicity in immunodeficient nude mouse xenografted with human MGC-803 cells assessed as reduction in body weight at 50 mg/kg, ip administered for 3 weeks relative to control. As to conditions: in vivo, 504 h. In kind it is organism-based.
For data set [4], the system named is HGC-27. Briefly: Induction of apoptosis in human HGC-27 cells assessed as increase in cleaved caspase-9 expression at 2 to 16 uM by western blot analysis. In kind it is functional, cell-based. As to conditions: dose 2-16 µM, DDE = dose-dependent effect. Background: A western blot detects proteins with antibodies after separation by electrophoresis.
A short description of data set [5]: MRT(0 to t) in Sprague-Dawley rat at 50 mg/kg, ip measured upto 24 hrs by LC-MS analysis. As to conditions: in vivo. In kind it is ADME, organism-based.
Data set [6] can be described thus: AUC(0 to t) in Sprague-Dawley rat at 50 mg/kg, ip measured upto 24 hrs by LC-MS analysis. In kind it is ADME, organism-based. The arrangement: time < 24 hrs, dose 50 mg/kg, route ip. Particulars: in vivo.
Data set [7] has as its system MGC-803. Briefly: Induction of cell cycle arrest in human MGC-803 cells assessed as cells accumulation at G2/M phase at 1.25 to 10 uM after 48 hrs by propidium iodide staining based flow cytometric analysis(reference value: 13.1%). In kind it is functional. As to conditions: dose 1.25-10 µM.
For data set [8], the system named is MGC-803. Briefly: Antitumor activity against human MGC-803 cells xenografted in immunodeficient nude mouse assessed as increase in TUNEL positive cells at 50 mg/kg, ip administered for 3 weeks by fluorescence microscopic analysis. It counts as functional, organism-based.
Data set [9] concerns HGC-27. Briefly: Induction of apoptosis in human HGC-27 cells assessed as decrease in cytochrome C expression at 2 to 16 uM by western blot analysis. Particulars: dose 2-16 µM, DDE = dose-dependent effect. In kind it is functional, cell-based.
The test system of data set [10] is HGC-27. Briefly: Induction of mitochondrial membrane potential loss in human HGC-27 cells assessed as TMRE positive cells at 2 to 16 uM by TRME staining based flow cytometric analysis (reference value: 5.8%). Particulars: dose 2-16 µM, DDE = dose-dependent effect. It counts as functional, cell-based. For orientation: A flow cytometer gives signals particle by particle.

In data set [11] the test system is HGC-27. Briefly: Induction of apoptosis in human HGC-27 cells assessed as reduction in BCl2 expression at 2 to 16 uM by western blot analysis. As to conditions: dose 2-16 µM, DDE = dose-dependent effect. It counts as functional, cell-based.
In data set [12] the test system is MGC-803. Briefly: Antitumor activity against human MGC-803 cells xenografted in immunodeficient nude mouse assessed as reduction in tumor growth at 50 mg/kg, ip administered for 3 weeks relative to control. In kind it is functional. Particulars: MGC-803, 504 h, read-out: TGI.
Data set [13] relates to HGC-27. Briefly: Down regulation of MMP9 expression in human HGC-27 cells at 2 to 16 uM after 24 hrs by western blot analysis. In kind it is functional, cell-based. Particulars: dose 2-16 µM, DDE = dose-dependent effect.
Data set [14] relates to MGC-803. Briefly: Antiproliferative activity against human MGC-803 cells assessed as reduction in cell viability after 24 hrs by MTT assay. It counts as functional, cell-based. Particulars: MGC-803, 24 h.
Data set [15] concerns HGC-27. Briefly: Inhibition of cell migration in human HGC-27 cells assessed as reduction in migration at 1 to 8 uM for 24 hrs by wound healing assay. It counts as functional, cell-based. Particulars: dose 1-8 µM, DDE = dose-dependent effect.
In data set [16] the test system is HGC-27. Briefly: Induction of apoptosis in human HGC-27 cells assessed as increase in apoptotic cells at 2 to 16 uM after 48 hr by AnnexinV-FITC/PI staining based flow cytometric analysis (reference value: 5.03%). In kind it is functional, cell-based. Particulars: dose 2-16 µM, DDE = dose-dependent effect.
The next data set is filed under the species Homo sapiens. Briefly: Inhibition of DNA topoisomerase 1 (unknown origin) assessed as relaxation of supercoiled plasmid pBR322 DNA at 12.5 to 100 uM incubated for 30 mins by agarose gel electrophoresis. As to conditions: dose 12.5-100 µM.
Data set [17] relates to MGC-803. Briefly: Antitumor activity against human MGC-803 cells xenografted in immunodeficient nude mouse assessed as tumor weight at 50 mg/kg, ip administered for 3 weeks (reference value: 157.8 mg). It counts as functional.

Calls of active or inactive are those of the source.

As for `Oc1c(Cc2nccc3cc4c(cc23)OCO4)ccc2c1OCO2`, the IC50 with GES1 is 98.4 µM; in the data set on MGC-803 [14] it was 5.1 µM. In addition, the half-life in data set [1] is 2.3 h. Further, the result in the data set on MGC-803 [2] and with MGC-803 [8] was Active. Further, the Activity entry is “Non-Toxic” in data set [3]; “Dde” in the data set with HGC-27 [4]; 54.4% in the data set with MGC-803 [7]; “Dde” in the data set with HGC-27 [9]; “Dde” with HGC-27 [10]; “Dde” with HGC-27 [11]. In addition, the Activity result with HGC-27 [13] is “Dde”; in the data set with HGC-27 [16], “Dde”; in the data set with MGC-803 [17], 176.2 mg. The MRT last at 24 h in data set [5] came to 3.3 h. In [6], the AUC(0-t) at 24 h stood at 29500 ng·h/mL. Also, the inhibition in vivo at 50 mg/kg with MGC-803 [12] was 63.8%. Moreover, in the data set with HGC-27 [15], the inhibition entry was “Dde”. For the same compound, the inhibition result in the data set listed under Homo sapiens was “Active”.

A word on the IC50: it is the concentration that gives 50% inhibition. As usually defined, the half-life is the time needed for the level to fall by half in the phase considered. A lower half-life goes with rapid decline. As usually defined, the MRT last is the average time that molecules of a dose stay in the body. What is called AUC(0-t) is the area under the concentration-time curve up to a stated or last time point.
